# Assay results from article PMC4802617 (Chinese Medicine, 2016).
# Several values for one entry are separate records, joined by “and”; a condition that tells them apart may be missing. Equal entries are not always repeated. Entries after “also recorded” stand apart in the source; their conditions may differ. Structures can show the parent of a compound that is named as a salt. Where two headings read alike, the source gives them in different places.
# What was measured:
# [1] = target: T1, CYP2E1 (Homo sapiens, UniProt P05181); details: CYP2E1 ref 28; read-out: Ki, specific inhibitor/reported values; cited from earlier work
# T1 construct: tissue Cypex Ltd. (UK); host or cells: pooled human liver microsomes, ten donors
# T1 sequence (P05181 whole entry): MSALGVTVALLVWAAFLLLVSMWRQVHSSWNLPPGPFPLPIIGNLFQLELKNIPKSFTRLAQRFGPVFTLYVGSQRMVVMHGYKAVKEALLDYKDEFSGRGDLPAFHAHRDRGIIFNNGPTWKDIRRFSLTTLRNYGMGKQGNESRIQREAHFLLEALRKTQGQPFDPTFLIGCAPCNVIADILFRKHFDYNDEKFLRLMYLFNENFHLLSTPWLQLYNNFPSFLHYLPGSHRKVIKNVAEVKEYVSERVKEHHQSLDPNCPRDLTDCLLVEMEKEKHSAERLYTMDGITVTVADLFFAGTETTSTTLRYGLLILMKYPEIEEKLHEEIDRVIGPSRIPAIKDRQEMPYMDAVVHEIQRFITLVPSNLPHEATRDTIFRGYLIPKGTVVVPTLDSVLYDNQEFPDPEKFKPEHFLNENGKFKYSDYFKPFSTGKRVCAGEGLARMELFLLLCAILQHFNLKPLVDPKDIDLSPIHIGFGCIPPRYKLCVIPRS
# [2] = target: T2, CYP2A6 (Homo sapiens, UniProt P11509); assay: Inhibition of coumarin 7-hydroxylation in HLMs; type: in vitro ADME
# T2 construct: tissue Cypex Ltd. (UK); host or cells: pooled human liver microsomes, ten donors
# T2 sequence (P11509 1-494): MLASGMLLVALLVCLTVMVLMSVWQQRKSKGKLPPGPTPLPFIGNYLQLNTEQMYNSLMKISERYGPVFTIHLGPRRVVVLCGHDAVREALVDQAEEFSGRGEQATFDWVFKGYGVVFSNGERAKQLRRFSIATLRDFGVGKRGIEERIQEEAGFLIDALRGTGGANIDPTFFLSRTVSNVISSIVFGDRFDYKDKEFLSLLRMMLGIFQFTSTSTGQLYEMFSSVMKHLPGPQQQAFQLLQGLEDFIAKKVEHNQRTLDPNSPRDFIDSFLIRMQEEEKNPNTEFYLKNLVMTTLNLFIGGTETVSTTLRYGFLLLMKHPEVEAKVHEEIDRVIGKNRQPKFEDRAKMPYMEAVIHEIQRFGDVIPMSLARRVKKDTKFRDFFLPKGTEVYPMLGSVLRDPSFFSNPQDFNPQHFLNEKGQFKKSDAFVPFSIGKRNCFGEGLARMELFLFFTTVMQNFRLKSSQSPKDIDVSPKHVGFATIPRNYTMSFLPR
# Description: (§1) The CYP isoform-specific probe reactions used were phenacetin O-deethylation (for CYP1A2), coumarin 7-hydroxylation (for CYP2A6), tolbutamide 4-hydroxylation (for CYP2C9), metoprolol α-hydroxylation (for CYP2D6), chlorzoxazone 6-hydroxylation (for CYP2E1), S-mephenytoin 4-hydroxylation (for CYP2C19), and midazolam 1-hydroxylation (for CYP3A4). […] Each reaction was initiated by addition of 1 mg/mL NADPH. The final incubations were performed in a shaking water bath at 37 °C for 30 min. The incubations were performed in triple, and the incubation conditions specific to each CYP isoform were within the linear range for the velocity of the reaction (incubation time as well as substrate and protein concentrations). […] The reactions were stopped by adding 0.2 mL of ice-cold acetonitrile containing irbesartan (114.9 ng/mL) as the internal standard. The samples were vortexed for 5 min. After centrifugation (5415D centrifuge, Eppendorf, Germany) (12,000×g for 10 min), the supernatants were transferred and aliquots of 20 µL were injected into the HPLC–MS/MS system for analysis.
# (§2) A pilot inhibitory analysis of each CYP isoform was performed to determine the potency of inhibition and to select CYP isoforms for further detailed study of their inhibitory activities. […] The substrates comprising phenacetin, coumarin, tolbutamide, metoprolol, chlorzoxazone, S-mephenytoin, and midazolam were employed at concentrations of 10, 5, 100, 7.5, 40, 100, and 5 µM, respectively. All incubation conditions were the same as those described above.
# (§3) Values of P < 0.05 denoted significance in all cases. […] The activity of each CYP isoform was calculated by the MCR of its corresponding probe substrate to determine the inhibition of the CYP isoforms. […] The IC50 values were determined by analyzing the plot of the logarithm of the inhibitor concentration versus the percentage of activity remaining after inhibition, using the SPSS for Windows Version 11.5 (SPSS Inc., USA). […]
# [3] = target: T3, CYP3A4 (Homo sapiens, UniProt P08684); assay: Kinetic analysis of STS metabolism by recombinant CYP3A4; type: in vitro ADME
# T3 sequence (P08684 whole entry, canonical isoform): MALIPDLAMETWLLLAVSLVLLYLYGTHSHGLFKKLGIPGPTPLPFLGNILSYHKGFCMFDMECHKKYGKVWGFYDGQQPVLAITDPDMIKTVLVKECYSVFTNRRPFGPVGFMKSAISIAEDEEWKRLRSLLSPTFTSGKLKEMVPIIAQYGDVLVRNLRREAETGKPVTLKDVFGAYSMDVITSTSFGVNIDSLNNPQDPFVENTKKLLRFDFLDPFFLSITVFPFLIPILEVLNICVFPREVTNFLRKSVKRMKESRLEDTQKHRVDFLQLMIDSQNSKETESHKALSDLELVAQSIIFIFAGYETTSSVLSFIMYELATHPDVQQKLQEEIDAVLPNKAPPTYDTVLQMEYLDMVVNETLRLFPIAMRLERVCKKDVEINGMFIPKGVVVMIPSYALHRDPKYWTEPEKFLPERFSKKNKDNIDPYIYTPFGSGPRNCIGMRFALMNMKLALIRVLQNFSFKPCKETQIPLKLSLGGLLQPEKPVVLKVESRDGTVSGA
# Description: The CYP isoform-specific probe reactions used were phenacetin O-deethylation (for CYP1A2), coumarin 7-hydroxylation (for CYP2A6), tolbutamide 4-hydroxylation (for CYP2C9), metoprolol α-hydroxylation (for CYP2D6), chlorzoxazone 6-hydroxylation (for CYP2E1), S-mephenytoin 4-hydroxylation (for CYP2C19), and midazolam 1-hydroxylation (for CYP3A4). […] Each reaction was initiated by addition of 1 mg/mL NADPH. The final incubations were performed in a shaking water bath at 37 °C for 30 min. The incubations were performed in triple, and the incubation conditions specific to each CYP isoform were within the linear range for the velocity of the reaction (incubation time as well as substrate and protein concentrations). […]
# The incubation conditions consisted of substrate probe, HLMs (0.5 mg/mL) or CYP isoforms (10 pmol), and 0.1 M sodium phosphate buffer (pH 7.4) in a total volume of 0.2 mL. […] All values were expressed as the mean ± standard deviation (SD). […]
# as §3
# [4] = target: T4, CYP2C19 (Homo sapiens, UniProt P33261); assay: Inhibition of S-mephenytoin 4-hydroxylation in HLMs; type: in vitro ADME
# T4 construct: tissue Cypex Ltd. (UK); host or cells: pooled human liver microsomes, ten donors
# T4 sequence (P33261 whole entry): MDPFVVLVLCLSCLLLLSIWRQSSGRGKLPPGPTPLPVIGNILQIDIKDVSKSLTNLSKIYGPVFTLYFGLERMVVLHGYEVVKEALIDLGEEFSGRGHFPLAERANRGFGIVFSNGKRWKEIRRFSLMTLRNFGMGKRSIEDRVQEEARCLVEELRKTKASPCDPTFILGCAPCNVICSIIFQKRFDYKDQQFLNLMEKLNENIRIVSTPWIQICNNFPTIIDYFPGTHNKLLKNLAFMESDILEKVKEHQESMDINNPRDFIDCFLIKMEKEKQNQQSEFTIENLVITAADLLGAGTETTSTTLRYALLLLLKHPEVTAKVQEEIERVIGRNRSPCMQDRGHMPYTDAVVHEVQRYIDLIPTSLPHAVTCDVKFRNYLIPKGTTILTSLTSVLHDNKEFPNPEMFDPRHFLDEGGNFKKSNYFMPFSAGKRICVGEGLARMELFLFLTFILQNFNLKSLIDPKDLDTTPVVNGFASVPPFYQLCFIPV
# Description: as §1, §2, §3
# [5] = Kinetic analysis of STS metabolism by human liver microsomes; type: in vitro ADME
# Description: as §1
# The incubation conditions consisted of substrate probe, HLMs (0.5 mg/mL) or CYP isoforms (10 pmol), and 0.1 M sodium phosphate buffer (pH 7.4) in a total volume of 0.2 mL. […] All values were expressed as the mean ± standard deviation (SD). The mean intrinsic clearance rate (CLint) for the in vitro incubation was estimated by Vmax/Km.
# (§4) Values of P < 0.05 denoted significance in all cases. […] The activity of each CYP isoform was calculated by the MCR of its corresponding probe substrate to determine the inhibition of the CYP isoforms. […] The IC50 values were determined by analyzing the plot of the logarithm of the inhibitor concentration versus the percentage of activity remaining after inhibition, using the SPSS for Windows Version 11.5 (SPSS Inc., USA). The inhibition data were fitted to different models of enzyme inhibition (competitive, noncompetitive, and uncompetitive) by nonlinear least-squares regression analysis using GraphPad Prism 5 software (GraphPad Co. Ltd., USA) to calculate the Ki values.
# [6] = Effects of specific CYP inhibitors on metabolic clearance rate (MCR) of STS in HLMs; type: in vitro ADME, human; details: STS 10 µM, in the presence of KET 1 µM
# [7] = rats, intravenous 2 mg/kg, cited from earlier work
# [8] = target: T5, CYP1A2 (Homo sapiens, UniProt P05177); details: in vivo; cited from earlier work
# T5 sequence (P05177 1-516): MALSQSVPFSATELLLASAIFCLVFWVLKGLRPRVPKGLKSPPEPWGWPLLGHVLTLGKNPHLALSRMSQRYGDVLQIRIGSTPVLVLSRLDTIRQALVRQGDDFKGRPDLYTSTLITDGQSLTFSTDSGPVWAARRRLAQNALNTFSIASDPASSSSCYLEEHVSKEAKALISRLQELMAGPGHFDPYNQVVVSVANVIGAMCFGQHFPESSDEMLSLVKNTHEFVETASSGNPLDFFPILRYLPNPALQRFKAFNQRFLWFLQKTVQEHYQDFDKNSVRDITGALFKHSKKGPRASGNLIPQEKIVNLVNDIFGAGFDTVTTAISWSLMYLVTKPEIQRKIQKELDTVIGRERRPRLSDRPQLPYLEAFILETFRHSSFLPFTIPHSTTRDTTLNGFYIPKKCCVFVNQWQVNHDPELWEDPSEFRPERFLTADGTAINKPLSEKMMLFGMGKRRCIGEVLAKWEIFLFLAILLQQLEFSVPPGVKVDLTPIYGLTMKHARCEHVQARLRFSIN
# [9] = rats, cited from earlier work
# [10] = target: T6, CYP2D6 (Homo sapiens, UniProt P10635); assay: Inhibition of metoprolol α-hydroxylation in HLMs; type: in vitro ADME
# T6 construct: tissue Cypex Ltd. (UK); host or cells: pooled human liver microsomes, ten donors
# T6 sequence (P10635 whole entry): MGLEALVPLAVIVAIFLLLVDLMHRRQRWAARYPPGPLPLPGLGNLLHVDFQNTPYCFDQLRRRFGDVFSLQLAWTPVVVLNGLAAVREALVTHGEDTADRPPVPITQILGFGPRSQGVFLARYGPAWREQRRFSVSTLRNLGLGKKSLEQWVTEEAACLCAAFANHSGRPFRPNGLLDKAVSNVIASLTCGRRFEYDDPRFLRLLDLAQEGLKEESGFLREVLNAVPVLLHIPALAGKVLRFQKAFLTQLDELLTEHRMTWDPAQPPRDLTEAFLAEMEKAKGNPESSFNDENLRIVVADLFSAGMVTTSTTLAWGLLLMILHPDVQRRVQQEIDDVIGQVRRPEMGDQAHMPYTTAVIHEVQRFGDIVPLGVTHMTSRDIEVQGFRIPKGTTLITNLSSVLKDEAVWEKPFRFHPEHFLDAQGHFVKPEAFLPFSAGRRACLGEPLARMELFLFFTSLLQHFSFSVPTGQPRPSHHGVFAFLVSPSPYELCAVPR
# Description: as §1, §2, §3
# [11] = target: T1, CYP2E1; assay: Inhibition of chlorzoxazone 6-hydroxylation in HLMs; type: in vitro ADME
# Description: as §1, §2, §3
# [12] = target: T7, CYP2C9 (Homo sapiens, UniProt P11712); assay: Inhibition of tolbutamide 4-hydroxylation in HLMs; type: in vitro ADME
# T7 construct: tissue Cypex Ltd. (UK); host or cells: pooled human liver microsomes, ten donors
# T7 sequence (P11712 whole entry): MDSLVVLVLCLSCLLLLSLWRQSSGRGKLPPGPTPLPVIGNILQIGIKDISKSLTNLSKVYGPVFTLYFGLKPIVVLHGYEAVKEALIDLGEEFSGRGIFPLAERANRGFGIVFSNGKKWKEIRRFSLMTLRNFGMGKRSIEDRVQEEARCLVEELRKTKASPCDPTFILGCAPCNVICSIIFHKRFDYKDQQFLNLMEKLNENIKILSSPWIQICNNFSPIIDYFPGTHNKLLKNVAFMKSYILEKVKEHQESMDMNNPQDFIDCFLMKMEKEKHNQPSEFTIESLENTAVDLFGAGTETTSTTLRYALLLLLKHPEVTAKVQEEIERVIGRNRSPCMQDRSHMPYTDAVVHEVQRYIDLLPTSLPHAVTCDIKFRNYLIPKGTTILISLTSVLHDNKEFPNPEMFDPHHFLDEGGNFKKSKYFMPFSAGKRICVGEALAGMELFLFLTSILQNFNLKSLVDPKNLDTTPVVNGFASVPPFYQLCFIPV
# Description: as §1, §2, §3
# [13] = target: T3, CYP3A4; assay: MCR of STS with recombinant CYP3A4 under inhibition by KET; type: in vitro ADME; details: KET 1 µM
# [14] = target: T3, CYP3A4; assay: Inhibition of midazolam 1-hydroxylation in HLMs (IC50, Ki, Dixon plots); type: in vitro ADME; parameters: tissue Cypex Ltd. (UK); host or cells: pooled human liver microsomes, ten donors
# Description: as §1, §2
# Therefore, Dixon plots for the inhibition of CYP3A4 were determined by incubating the substrate probe at multiple concentrations with or without the test inhibitor at multiple concentrations with the HLMs and cofactors. The inhibition data obtained from the pilot experiments were used as a guide to generate appropriate probe substrate and test inhibitor concentrations for determination of the Ki values for each CYP isoform. The isoform-specific probe substrate concentrations used were 5–50 µM midazolam for CYP3A4.
# as §4
# [15] = target: T5, CYP1A2; assay: Inhibition of phenacetin O-deethylation in HLMs; type: in vitro ADME; parameters: tissue Cypex Ltd. (UK); host or cells: pooled human liver microsomes, ten donors
# Description: as §1, §2, §3
# [16] = tested on: human CYP1A2 isoform; details: specific human CYP1A2 isoform, competitive ref 32; cited from earlier work
# [17] = target: T7, CYP2C9; details: cited from earlier work
# [18] = target: T5, CYP1A2; parameters: tissue Cypex Ltd. (UK); host or cells: pooled human liver microsomes, ten donors; details: CYP1A2, pooled HLMs, competitive ref 32; cited from earlier work
# [19] = classification of Kong et al., read-out: potency class of inhibitor by IC50
compound,measurement,setting,value
"Cc1ncsc1CCCl [CHL, chlormethiazole hydrochloride]",Ki,[1],12 µM
"Cc1c(S(=O)(=O)O)oc2c1C(=O)C(=O)c1c-2ccc2c1CCCC2(C)C [STS, sodium tanshinone IIA sulfonate]",inhibitory effect on CYP2A6 activity,"[2]; STS 1–100 µM, HLMs",minimal; also recorded: negligible
same,IC50,"[2]; STS 1–100 µM, coumarin 5 µM, HLMs, read-out: IC50",> 100 µM
same,IC50,[2]; [19],≥ 50 µM
same,Vmax,"[3]; Fig. 2b, CYP3A4, printed in picture",6.8
same,in vitro CLint,"[3]; STS with CYP3A4, Vmax/Km",0.902 mL/nmol P450/min
same,inhibitory effect on CYP2C19 activity,"[4]; STS 1–100 µM, HLMs",minimal; also recorded: negligible
same,IC50,"[4]; STS 1–100 µM, S-mephenytoin 100 µM, HLMs, read-out: IC50",> 100 µM
same,IC50,[4]; [19],≥ 50 µM
same,Vmax,"[5]; Fig. 2a, human liver microsomes",0.9
same,Vmax,"[5]; STS metabolism, HLMs 0.5 mg/mL, mean ± SD",0.9 ± 0.1 nmol/mg protein/min
same,Km,"[5]; human, human liver microsomes, pH 7.4",54.8 ± 14.6 µM
same,microsomal CLint,"[5]; human, human liver microsomes, pH 7.4, read-out: in vitro CLint",16 µL/min/mg
same,"MCR of STS, of control",[6],37.4%
same,maximal STS concentration in liver,"[7]; 5 min after administration ref 15, 16",> 10 µg/mL
same,detection in other tissues,"[7]; 2 h after administration, other tissues ref 15, 16",hardly detected
same,time after administration at which STS could be determined,"[7]; kidney ref 15, 16",4 h
same,time after administration at which STS could be determined,"[7]; liver ref 15, 16",12 h
same,increase of CYP1A2 activity,[8],41.1%
same,plasma concentration,"[9]; 4 h after the injection ref 15, 16",≤ 20 ng/mL
same,t1/2,"[9]; after injection ref 15, 16",< 54 min
same,inhibitory effect on CYP2D6 activity,"[10]; STS 1–100 µM, HLMs",minimal; also recorded: negligible
same,IC50,"[10]; STS 1–100 µM, metoprolol […], HLMs, read-out: IC50",> 100 µM
same,IC50,[10]; [19],≥ 50 µM
same,inhibitory effect on CYP2E1 activity,"[11]; STS 1–100 µM, HLMs",minimal; also recorded: negligible
same,IC50,"[11]; STS 1–100 µM, chlorzoxazone 40 µM, HLMs, read-out: IC50",> 100 µM
same,IC50,[11]; [19],≥ 50 µM
same,inhibitory effect on CYP2C9 activity,"[12]; STS 1–100 µM, HLMs",minimal; also recorded: negligible
same,IC50,"[12]; STS 1–100 µM, tolbutamide 100 µM, HLMs, read-out: IC50",> 100 µM
same,IC50,[12]; [19],≥ 50 µM
same,"MCR of STS, of control value","[13]; recombinant CYP3A4, STS 10 µM",58.4%
same,"MCR of STS, of control value","[13]; recombinant CYP3A4, STS 50 µM",29.4%
same,Ki fold higher than that of KET,"[14]; HLMs, versus reported KET value",approximately 212 fold
same,IC50,"[14]; STS 1–100 µM, midazolam 5 µM, HLMs, brackets = 95 % confidence interval, read-out: IC50",6.4 µM and 6.38 µM
same,IC50,[14]; [19],≤ 10 µM
same,type of inhibition,"[14]; midazolam 1-hydroxylation in HLMs, Dixon / Lineweaver–Burk plots",competitive type of inhibition; also recorded: full competitive inhibition
same,IC50 fold higher than that of KET,"[14]; midazolam 1-hydroxylation, HLMs, versus reported KET values",26.6–79.7 fold
same,Ki,"[14]; midazolam 5–50 µM, STS 0–100 µM, HLMs, competitive model, brackets = 95 % confidence interval",3.18 µM
same,inhibitory effect on CYP1A2 activity,"[15]; STS 1–100 µM, HLMs",minimal; also recorded: negligible; also recorded: not an inhibitor
same,IC50,"[15]; STS 1–100 µM, phenacetin 10 µM, HLMs, read-out: IC50",> 100 µM
same,IC50,[15]; [19],≥ 50 µM
Cc1coc2c1C(=O)C(=O)c1c-2ccc2c1CCCC2(C)C [tanshinone IIA],Ki,[16],0.05 µM
same,inhibition of CYP2C9,[17],medium competitive inhibitor
same,Ki,[18],1.45 µM
